# Reference: ChEMBL document CHEMBL3885861, “Open TG-GATES”
# Species: Rattus norvegicus
# Experiment: Open TG-GATES - Regimen: Single
# Format: toxicity, organism-based, Sprague-Dawley
# Design: regimen Single, gender Male, age 6 weeks
# Settings: in vivo, po, 0 mg/kg, route gavage, dose level Control; for APTT / Bas / Eos / Fbg / Hb / Ht / Lym / MCH / MCHC / MCV / Mono / Neu / PT / Plat / RBC / Ret / WBC: tissue Blood; for KIDNEY_L / KIDNEY_R / KIDNEY_TOTAL: tissue Kidney; for LIVER: tissue Liver; for A/G / ALP / ALT / AST / BUN / CRE / Ca / Cl / DBIL / GLC / IP / K / LDH / Na / PL / RALB / TBIL / TC / TG / TP / gamma-GTP: tissue Plasma
smiles,measurement,setting,value
CN(C)CCC(c1ccc(Cl)cc1)c1ccccn1 (configuration not stated) [CHLORPHENIRAMINE],TERMINAL_BW,3 h,198.4 g
same,APTT,3 h,18.8 s
same,Bas,3 h,0.2%
same,Eos,3 h,0.8%
same,Fbg,3 h,288.8 mg/dL
same,Hb,3 h,12.6 g/dL
same,Ht,3 h,39.4%
same,Lym,3 h,77.4%
same,MCH,3 h,20.8 pg
same,MCHC,3 h,32.1%
same,MCV,3 h,64.9 fL
same,Mono,3 h,2.8%
same,Neu,3 h,18.2%
same,PT,3 h,14.7 s
same,Plat,3 h,109.9 x10_4/uL
same,RBC,3 h,606.2 x10_4/ul
same,Ret,3 h,9.4%
same,WBC,3 h,120.9 x10_2/uL
same,KIDNEY_L,3 h,0.9 g
same,KIDNEY_R,3 h,0.9 g
same,KIDNEY_TOTAL,3 h,1.7 g
same,LIVER,3 h,9.2 g
same,A/G,3 h,0.9
same,ALP,3 h,1344.2 IU/L
same,ALT,3 h,46 IU/L
same,AST,3 h,73.6 IU/L
same,BUN,3 h,9.2 mg/dL
same,CRE,3 h,0.2 mg/dL
same,Ca,3 h,10.5 mg/dL
same,Cl,3 h,107.2 meq/L
same,DBIL,3 h,0.008 mg/dL
same,GLC,3 h,179 mg/dL
same,IP,3 h,9.7 mg/dL
same,K,3 h,4.3 meq/L
same,LDH,3 h,215.8 IU/L
same,Na,3 h,142.8 meq/L
same,PL,3 h,137.2 mg/dL
same,RALB,3 h,2.5 g/dL
same,TBIL,3 h,0.054 mg/dL
same,TC,3 h,79.8 mg/dL
same,TG,3 h,46.6 mg/dL
same,TP,3 h,5.3 g/dL
same,gamma-GTP,3 h,1.4 IU/L
same,TERMINAL_BW,6 h,196.5 g
same,APTT,6 h,17.5 s
same,Bas,6 h,0%
same,Eos,6 h,0.6%
same,Fbg,6 h,303.6 mg/dL
same,Hb,6 h,12.8 g/dL
same,Ht,6 h,40.3%
same,Lym,6 h,76.8%
same,MCH,6 h,20.7 pg
same,MCHC,6 h,31.8%
same,MCV,6 h,65.1 fL
same,Mono,6 h,3.2%
same,Neu,6 h,18.8%
same,PT,6 h,14.8 s
same,Plat,6 h,117.5 x10_4/uL
same,RBC,6 h,618.2 x10_4/ul
same,Ret,6 h,9.5%
same,WBC,6 h,82.5 x10_2/uL
same,KIDNEY_L,6 h,0.9 g
same,KIDNEY_R,6 h,0.9 g
same,KIDNEY_TOTAL,6 h,1.7 g
same,LIVER,6 h,8.7 g
same,A/G,6 h,0.9
same,ALP,6 h,1456.6 IU/L
same,ALT,6 h,44.8 IU/L
same,AST,6 h,76.2 IU/L
same,BUN,6 h,10.2 mg/dL
same,CRE,6 h,0.2 mg/dL
same,Ca,6 h,10.8 mg/dL
same,Cl,6 h,106.6 meq/L
same,DBIL,6 h,0.008 mg/dL
same,GLC,6 h,190.6 mg/dL
same,IP,6 h,10.7 mg/dL
same,K,6 h,4.2 meq/L
same,LDH,6 h,140.2 IU/L
same,Na,6 h,143 meq/L
same,PL,6 h,135.2 mg/dL
same,RALB,6 h,2.5 g/dL
same,TBIL,6 h,0.05 mg/dL
same,TC,6 h,81 mg/dL
same,TG,6 h,49.2 mg/dL
same,TP,6 h,5.4 g/dL
same,gamma-GTP,6 h,1.2 IU/L
same,TERMINAL_BW,9 h,193.9 g
same,APTT,9 h,19.1 s
same,Bas,9 h,0%
same,Eos,9 h,0.8%
same,Fbg,9 h,294.4 mg/dL
same,Hb,9 h,12.7 g/dL
same,Ht,9 h,39.4%
same,Lym,9 h,75.6%
same,MCH,9 h,21.6 pg
same,MCHC,9 h,32.2%
same,MCV,9 h,67.1 fL
same,Mono,9 h,2.8%
same,Neu,9 h,19.8%
same,PT,9 h,15 s
same,Plat,9 h,107.8 x10_4/uL
same,RBC,9 h,587.6 x10_4/ul
same,Ret,9 h,9.5%
same,WBC,9 h,66.4 x10_2/uL
same,KIDNEY_L,9 h,0.9 g
same,KIDNEY_R,9 h,0.9 g
same,KIDNEY_TOTAL,9 h,1.7 g
same,LIVER,9 h,7.7 g
same,A/G,9 h,0.9
same,ALP,9 h,1415.8 IU/L
same,ALT,9 h,38.6 IU/L
same,AST,9 h,73.8 IU/L
same,BUN,9 h,8.2 mg/dL
same,CRE,9 h,0.1 mg/dL
same,Ca,9 h,10.2 mg/dL
same,Cl,9 h,106.6 meq/L
same,DBIL,9 h,0.008 mg/dL
same,GLC,9 h,161.6 mg/dL
same,IP,9 h,10.7 mg/dL
same,K,9 h,4 meq/L
same,LDH,9 h,116.2 IU/L
same,Na,9 h,143.8 meq/L
same,PL,9 h,131.6 mg/dL
same,RALB,9 h,2.5 g/dL
same,TBIL,9 h,0.054 mg/dL
same,TC,9 h,76.2 mg/dL
same,TG,9 h,39.4 mg/dL
same,TP,9 h,5.4 g/dL
same,gamma-GTP,9 h,1.2 IU/L
same,TERMINAL_BW,24 h,212.2 g
same,APTT,24 h,19.7 s
same,Bas,24 h,0%
same,Eos,24 h,1%
same,Fbg,24 h,292.6 mg/dL
same,Hb,24 h,13.3 g/dL
same,Ht,24 h,41.2%
same,Lym,24 h,80.6%
same,MCH,24 h,21.2 pg
same,MCHC,24 h,32.2%
same,MCV,24 h,66 fL
same,Mono,24 h,3.6%
same,Neu,24 h,14.2%
same,PT,24 h,14.7 s
same,Plat,24 h,116.5 x10_4/uL
same,RBC,24 h,624.8 x10_4/ul
same,Ret,24 h,8.4%
same,WBC,24 h,75.5 x10_2/uL
same,KIDNEY_L,24 h,0.9 g
same,KIDNEY_R,24 h,0.9 g
same,KIDNEY_TOTAL,24 h,1.8 g
same,LIVER,24 h,10 g
same,A/G,24 h,0.8
same,ALP,24 h,1528.4 IU/L
same,ALT,24 h,46 IU/L
same,AST,24 h,70.2 IU/L
same,BUN,24 h,14.6 mg/dL
same,CRE,24 h,0.2 mg/dL
same,Ca,24 h,11 mg/dL
same,Cl,24 h,106.4 meq/L
same,DBIL,24 h,0.012 mg/dL
same,GLC,24 h,190.6 mg/dL
same,IP,24 h,8.8 mg/dL
same,K,24 h,4.3 meq/L
same,LDH,24 h,94.4 IU/L
same,Na,24 h,143 meq/L
same,PL,24 h,156.8 mg/dL
same,RALB,24 h,2.7 g/dL
same,TBIL,24 h,0.04 mg/dL
same,TC,24 h,85 mg/dL
same,TG,24 h,86 mg/dL
same,TP,24 h,5.8 g/dL
same,gamma-GTP,24 h,1.4 IU/L
